# Active and inactive are the calls of the source.
# Tests used:
# [1] = target: Nuclear receptor subfamily 5 group A member 2 (Homo sapiens, UniProt O00482); format: functional, cell-based;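 note: HEK293T cells transfected with LRH-1 and a StAR promoter luciferase reporter; potency for inhibitors that lower LRH-1 driven reporter light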
# Steroidogenic factor 1 = Steroidogenic factor 1 (Homo sapiens, UniProt Q13285); experiment: Counterscreen for inverse agonists of the liver receptor homolog-1 (LRH-1; NR5A2): Luminescence-based cell-based high throughput dose response assay to identify inverse agonists of the Steroidogenic Factor 1 Nuclear Receptor (SF1; NR5A1).; format: functional
# [2] = nonselective StAR promoter luciferase inhibitors – cell-based, luminescence, luciferase reporter, counter-screen for LRH-1 inverse agonist project, dose response (AID 651969); format: functional
# [3] = target: T1, Fructose-bisphosphate aldolase (Mycobacterium tuberculosis, UniProt P9WQA3); experiment: Fluorescence-based biochemical high throughput dose response assay for inhibitors of the fructose-bisphosphate aldolase (FBA) of M. tuberculosis.; format: functional
# T1 sequence (P9WQA3 whole entry): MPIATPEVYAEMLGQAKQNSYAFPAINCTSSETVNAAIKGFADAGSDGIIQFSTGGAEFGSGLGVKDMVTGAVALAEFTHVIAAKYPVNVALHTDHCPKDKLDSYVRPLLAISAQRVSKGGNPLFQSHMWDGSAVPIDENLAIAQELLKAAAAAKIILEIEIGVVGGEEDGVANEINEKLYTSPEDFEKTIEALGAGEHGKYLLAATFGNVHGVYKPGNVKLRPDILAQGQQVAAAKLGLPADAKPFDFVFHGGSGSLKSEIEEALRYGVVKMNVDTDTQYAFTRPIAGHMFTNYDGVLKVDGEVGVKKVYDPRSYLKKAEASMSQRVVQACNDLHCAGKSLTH
# [4] = target: T2, Adenosylmethionine-8-amino-7-oxononanoate aminotransferase (Mycobacterium tuberculosis, UniProt P9WQ81); experiment: Mycobacterium tuberculosis BioA enzyme inhibitor Measured in Biochemical System Using Plate Reader - 2163-02_Inhibitor_Dose_CherryPick_Activity.; format: functional, Mycobacterium tuberculosis UT205
# T2 sequence (P9WQ81 whole entry): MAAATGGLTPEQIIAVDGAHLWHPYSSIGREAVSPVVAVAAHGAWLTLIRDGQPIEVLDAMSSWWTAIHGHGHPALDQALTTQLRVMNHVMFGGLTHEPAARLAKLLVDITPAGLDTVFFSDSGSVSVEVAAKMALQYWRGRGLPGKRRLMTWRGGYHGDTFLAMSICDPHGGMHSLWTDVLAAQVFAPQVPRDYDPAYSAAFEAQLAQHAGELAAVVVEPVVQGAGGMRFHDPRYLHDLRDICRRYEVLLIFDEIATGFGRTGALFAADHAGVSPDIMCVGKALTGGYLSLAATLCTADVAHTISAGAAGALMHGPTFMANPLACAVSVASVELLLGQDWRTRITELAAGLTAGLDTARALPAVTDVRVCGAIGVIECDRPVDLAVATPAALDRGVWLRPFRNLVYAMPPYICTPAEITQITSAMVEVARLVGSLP
# [5] = A549 cell cytotoxicity, dose response, cytotoxicity control, plate reader, cherry-pick, antagonist series (AID 743412); format: functional, cell-based
# [6] = blockers of bursicon-stimulated LGR2 cAMP reporter – cell-based, HEK293, CRE-luciferase reporter, cherry pick, set 2, dose response (AID 743343); format: functional;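 note: transfected cells were stimulated with diluted bursicon conditioned medium after compound addition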
# [7] = blockade of melanocortin 4 receptor signaling – cell-based, plate reader, cherry pick, counter-screen for LGR2 antagonist project, dose response (AID 743444); format: functional;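 note: transfected HEK 293 cells stimulated with alpha-MSH peptide; potency of inhibitors of the alpha-MSH evoked signal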
# Protein skinhead-1 = target: T3, Protein skinhead-1 (Caenorhabditis elegans, UniProt P34707); format: functional
# T3 sequence (P34707 whole entry): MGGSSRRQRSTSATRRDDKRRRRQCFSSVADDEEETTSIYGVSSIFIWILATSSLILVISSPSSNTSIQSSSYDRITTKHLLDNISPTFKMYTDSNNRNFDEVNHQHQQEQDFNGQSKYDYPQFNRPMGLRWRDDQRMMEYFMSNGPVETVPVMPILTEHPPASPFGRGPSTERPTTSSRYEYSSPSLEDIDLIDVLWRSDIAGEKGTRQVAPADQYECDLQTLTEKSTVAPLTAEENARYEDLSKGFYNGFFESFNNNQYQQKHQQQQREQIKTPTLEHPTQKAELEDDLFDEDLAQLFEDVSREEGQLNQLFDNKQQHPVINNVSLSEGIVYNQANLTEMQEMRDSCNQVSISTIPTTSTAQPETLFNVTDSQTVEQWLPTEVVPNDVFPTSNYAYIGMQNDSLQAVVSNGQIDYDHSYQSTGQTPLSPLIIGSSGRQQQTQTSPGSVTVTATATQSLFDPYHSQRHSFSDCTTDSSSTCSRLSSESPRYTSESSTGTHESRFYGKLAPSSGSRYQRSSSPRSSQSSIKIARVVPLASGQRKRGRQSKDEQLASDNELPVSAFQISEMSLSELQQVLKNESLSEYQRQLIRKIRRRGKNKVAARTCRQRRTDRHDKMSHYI
# [8] = general mammalian cell viability loss – inhibitor set, cherry-pick, set 2, cytotoxicity control for miR-122 modulator project, dose response (AID 720697); format: functional, cell-based
# cells [9] = format: functional, cell-based
# cells [10] = format: functional, cell-based; remark: listed apart in the source
# [11] = Luminescence-based cell-based high throughput dose response assay to identify activators of the DAF-12 from the parasite S. stercoralis (ssDAF-12).; format: functional
# [12] = Luminescence Cell-Based Dose Retest to Confirm Inhibitors of Cancer Stem Cells. [Related pubchem assays (depositor defined):AID2717, AID2721]; format: functional; settings: Homo sapiens
# [13] = intracellular Trypanosoma cruzi inhibitors in host cells – cell-based, plate reader, cherry-pick samples, set 3, dose response (AID 651818); format: functional;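 note: compounds incubated with infected cells for about four days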
# Paired box protein Pax-8 = Paired box protein Pax-8 (Homo sapiens, UniProt Q06710); experiment: PAX8 transcriptional activity inhibition in RMG-I – RMG-I cells, luciferase, cherry-pick, dose response (AID 687027); format: functional, cell-based;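 note: luciferase reporter driven by Pax8 target thyroperoxidase promoter measured by SteadyGlo luminescence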
# [14] = target: T4, Mitochondrial peptide methionine sulfoxide reductase (Bos taurus, UniProt P54149); format: functional;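 note: absorbance read-out, biochemical high-throughput dose-response screen for MsrA inhibitors, confirmatory; recombinant bovine MsrA coupled to E. coli TrxB with NADPH and selenocystamine; potency is for inhibitors of MsrA activity on DMSO substrate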
# T4 sequence (P54149 whole entry): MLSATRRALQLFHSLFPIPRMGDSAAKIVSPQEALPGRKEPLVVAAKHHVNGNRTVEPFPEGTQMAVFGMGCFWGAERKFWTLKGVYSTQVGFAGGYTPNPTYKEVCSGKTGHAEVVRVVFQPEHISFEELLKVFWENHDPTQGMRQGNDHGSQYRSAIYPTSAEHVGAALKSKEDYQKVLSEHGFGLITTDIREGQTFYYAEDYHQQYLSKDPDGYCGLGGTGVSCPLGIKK
# Caspase-6 = target: T5, Caspase-6 (Homo sapiens, UniProt P55212); experiment: inhibition of CASP6 peptide cleavage – biochemical, VEID-R110 fluorescence, cherry-pick, dose response (AID 720632)
# T5 sequence (P55212 whole entry): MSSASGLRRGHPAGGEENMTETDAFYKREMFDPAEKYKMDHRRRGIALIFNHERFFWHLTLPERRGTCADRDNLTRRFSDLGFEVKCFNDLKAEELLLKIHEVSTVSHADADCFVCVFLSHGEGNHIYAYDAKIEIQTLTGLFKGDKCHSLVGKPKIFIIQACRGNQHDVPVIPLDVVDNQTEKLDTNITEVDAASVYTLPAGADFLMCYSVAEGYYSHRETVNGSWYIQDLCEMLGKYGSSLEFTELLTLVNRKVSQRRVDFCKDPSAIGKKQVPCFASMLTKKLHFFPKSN
# [15] = Counterscreen for inhibitors of Trypanosoma brucei methionyl tRNA synthetase (MetRS): Luminescence-based cell-based high throughput dose response assay to identify compounds that are cytotoxic to Jurkat human T lymphocyte cells.; format: functional
# [16] = target: T6, Methionyl-tRNA synthetase, putative (Trypanosoma brucei brucei, UniProt Q38C91); format: functional, Trypanosoma brucei brucei strain 927/4 GUTat10.1
# T6 sequence (Q38C91 whole entry): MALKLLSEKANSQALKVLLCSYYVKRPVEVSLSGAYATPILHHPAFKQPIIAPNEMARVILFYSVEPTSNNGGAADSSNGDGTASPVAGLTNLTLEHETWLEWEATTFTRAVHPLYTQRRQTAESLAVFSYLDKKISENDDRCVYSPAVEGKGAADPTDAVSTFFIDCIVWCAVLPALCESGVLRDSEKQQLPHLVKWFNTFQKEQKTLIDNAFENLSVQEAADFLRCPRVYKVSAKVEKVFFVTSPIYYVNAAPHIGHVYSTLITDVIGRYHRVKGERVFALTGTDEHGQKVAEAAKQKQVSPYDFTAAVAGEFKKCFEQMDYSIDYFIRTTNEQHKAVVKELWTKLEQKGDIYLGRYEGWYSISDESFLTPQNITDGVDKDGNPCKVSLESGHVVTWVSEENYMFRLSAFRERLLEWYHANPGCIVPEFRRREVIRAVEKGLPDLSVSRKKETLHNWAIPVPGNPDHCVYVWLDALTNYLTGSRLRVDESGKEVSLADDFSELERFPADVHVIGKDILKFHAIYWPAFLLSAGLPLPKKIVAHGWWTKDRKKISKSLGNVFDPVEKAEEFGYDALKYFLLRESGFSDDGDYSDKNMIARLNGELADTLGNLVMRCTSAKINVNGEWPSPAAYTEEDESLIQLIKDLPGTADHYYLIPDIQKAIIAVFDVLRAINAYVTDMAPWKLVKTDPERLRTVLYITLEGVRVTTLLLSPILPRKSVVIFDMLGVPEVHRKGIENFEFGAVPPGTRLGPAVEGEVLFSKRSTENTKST
# [17] = target: T6, Methionyl-tRNA synthetase, putative; format: functional, Trypanosoma brucei brucei strain 927/4 GUTat10.1; remark: listed apart in the source
# [18] = activation of miR-122 Renilla sensor silencing – cell-based, Huh7 psiCHECK-miR122, Renilla luciferase, cherry-picked, dose response (AID 651956); format: functional;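 note: huh7 hepatoma cells stably carrying a psiCHECK-2 miR-122 sensor plasmid; renilla luciferase signal reporting endogenous miR-122 activity after 48 h compound exposure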
# 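Throughout, for EC50: agonist potency from rise in intracellular calcium fluorescence.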
# Steroidogenic factor 1, sequence (Q13285 whole entry): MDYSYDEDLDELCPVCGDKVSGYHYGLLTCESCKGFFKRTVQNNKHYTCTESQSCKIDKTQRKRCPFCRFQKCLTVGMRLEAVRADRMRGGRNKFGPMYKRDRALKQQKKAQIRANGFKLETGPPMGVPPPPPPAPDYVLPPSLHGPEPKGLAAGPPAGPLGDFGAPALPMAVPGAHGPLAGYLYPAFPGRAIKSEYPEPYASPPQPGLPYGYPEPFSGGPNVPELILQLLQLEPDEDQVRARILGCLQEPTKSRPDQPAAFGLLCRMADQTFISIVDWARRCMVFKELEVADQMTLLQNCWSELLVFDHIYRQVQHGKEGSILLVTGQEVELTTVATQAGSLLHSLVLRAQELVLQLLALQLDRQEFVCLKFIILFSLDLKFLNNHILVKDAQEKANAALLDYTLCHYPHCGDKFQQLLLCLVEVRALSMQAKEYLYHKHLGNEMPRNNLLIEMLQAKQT
# Nuclear receptor subfamily 5 group A member 2, sequence (O00482 whole entry): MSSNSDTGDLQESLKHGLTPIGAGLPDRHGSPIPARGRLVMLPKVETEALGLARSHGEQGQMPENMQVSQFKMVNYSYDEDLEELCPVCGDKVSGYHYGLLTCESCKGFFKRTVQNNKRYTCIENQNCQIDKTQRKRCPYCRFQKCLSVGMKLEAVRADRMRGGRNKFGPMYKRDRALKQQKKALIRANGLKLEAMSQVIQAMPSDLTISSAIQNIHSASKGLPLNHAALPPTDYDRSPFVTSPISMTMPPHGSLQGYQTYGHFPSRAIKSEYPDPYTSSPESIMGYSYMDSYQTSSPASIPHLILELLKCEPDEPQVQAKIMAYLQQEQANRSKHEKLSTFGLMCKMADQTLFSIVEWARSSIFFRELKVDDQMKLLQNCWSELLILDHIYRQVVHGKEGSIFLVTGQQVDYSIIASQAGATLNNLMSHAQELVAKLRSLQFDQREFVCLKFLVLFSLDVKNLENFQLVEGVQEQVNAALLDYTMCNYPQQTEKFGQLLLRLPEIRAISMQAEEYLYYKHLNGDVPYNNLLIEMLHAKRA
# Paired box protein Pax-8, sequence (Q06710 whole entry): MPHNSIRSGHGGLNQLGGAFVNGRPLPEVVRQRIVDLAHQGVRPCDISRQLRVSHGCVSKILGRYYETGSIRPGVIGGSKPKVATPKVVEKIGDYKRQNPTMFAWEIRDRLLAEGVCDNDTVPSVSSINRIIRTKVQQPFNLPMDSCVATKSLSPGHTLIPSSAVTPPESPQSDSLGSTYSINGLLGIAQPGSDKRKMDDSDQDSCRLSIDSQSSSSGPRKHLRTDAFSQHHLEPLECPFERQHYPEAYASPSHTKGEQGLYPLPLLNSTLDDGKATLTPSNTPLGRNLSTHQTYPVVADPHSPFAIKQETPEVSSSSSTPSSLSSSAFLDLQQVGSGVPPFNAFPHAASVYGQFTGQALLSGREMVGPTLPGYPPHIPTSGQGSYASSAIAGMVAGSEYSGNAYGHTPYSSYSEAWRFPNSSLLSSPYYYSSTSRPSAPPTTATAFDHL
smiles,measurement,setting,value
CCCN(CC(=O)Nc1ccc(C(N)=O)cc1)CC(=O)Nc1ccccc1C,IC50,[1],5.11 µM (active)
same,IC50,Steroidogenic factor 1,2.88 µM (active)
same,IC50,[2],24.9 µM (inactive)
COc1ccc2oc(=N)c(-c3nnc4n3CCCCC4)cc2c1,IC50,[3],4.68 µM (active)
C=C(C)n1c(=O)n(Cc2ccccc2C)c2ccccc21,AC50,[4],1.32 µM (active)
COC(=O)C1C(=O)C=C(Nc2ccc(F)cc2)CC1c1ccc(OC)cc1 (stereo not given),AC50,[4],1.01 µM (active)
COc1ccc(-c2cc(C(=O)Nc3cccc(O)c3)no2)cc1,AC50,[5],> 52 µM (inactive)
same,AC50,[6],9.77 µM (active)
same,AC50,[7],7.86 µM (active)
COc1ccc(CNCCC(c2ccc(OC)cc2)c2ccccc2OC)cc1 (stereo not given),IC50,Protein skinhead-1,> 100 µM (inactive)
same,AC50,[8],3.94 µM (active)
COc1ccccc1CCNCc1cc2c(cc1[N+](=O)[O-])OCO2,IC50,cells [9],> 29.9 µM (inactive)
same,EC50,cells [10],> 29.9 µM (inactive)
CCOc1ccc(NC(=O)COC(=O)C2CCC(=O)N2)c([N+](=O)[O-])c1 (stereo not given),IC50,[1],35.8 µM (inactive)
same,IC50,Steroidogenic factor 1,35.8 µM (inactive)
same,IC50,[2],35.8 µM (inactive)
Cc1cc(OCC(=O)NCC(O)c2ccccc2)c2c(C)cc(=O)oc2c1 (stereo not given),IC50,[3],1.26 µM (active)
CC(=O)c1ccc2c3c(cccc13)C(=O)N(CCc1ccccc1)C2=O,IC50,cells [9],> 29.9 µM (inactive)
same,EC50,cells [10],> 29.9 µM (inactive)
same,IC50,[11],> 67.5 µM (inactive)
COc1ccc2c(c1)cc(C(=O)N[C@@H](Cc1ccccc1)C(=O)N[C@@H](C)C(=O)O)n2C,IC50,[3],1.29 µM (active)
CCN(CC)S(=O)(=O)c1ccc(NC(=O)c2ccc(Cl)nc2)cc1,AC50,[4],6.89 µM (active)
C[C@@H]1CN([C@@H](C)CO)C(=O)Cc2cc(NC(=O)Nc3ccc(C(F)(F)F)cc3)ccc2O[C@@H]1CN(C)S(=O)(=O)c1ccc(Cl)cc1,AC50,[12],1.28 µM (active)
same,AC50,[13],3.51 µM (active)
same,AC50,Paired box protein Pax-8,10.3 µM (active)
Cn1cnc([N+](=O)[O-])c1S(=O)(=O)Nc1ccccc1,IC50,[14],52.8 µM (inactive)
same,AC50,Caspase-6,9.66 µM (active)
CN(C(=O)CSc1nc2cc(Cl)ccc2[nH]1)C1CCS(=O)(=O)C1 (stereo not given),IC50,[15],83.2 µM (inactive)
CN(C(=O)CSc1nc2ccc(Cl)cc2[nH]1)C1CCS(=O)(=O)C1 (stereo not given),IC50,[16],64.5 µM (inactive)
same,IC50,[17],21.7 µM (inactive)
OC(c1cccc(Cl)c1)c1nc(-c2ccc3ccccc3c2)c[nH]1 (stereo not given),IC50,[16],14.2 µM (inactive)
same,IC50,[15],83.3 µM (inactive)
same,IC50,[17],5.6 µM (active)
Cc1noc(C)c1S(=O)(=O)Nc1ccc2c(c1)C(=O)N([C@H](C)CO)C[C@H](C)[C@H](CN(C)C(=O)Nc1ccc(C(F)(F)F)cc1)O2,AC50,[13],4.97 µM (active)
C[C@H](CO)N1C[C@H](C)[C@H](CN(C)Cc2ccc(C(=O)Nc3ccccc3N)cc2)Oc2c(NS(=O)(=O)c3cccs3)cccc2C1=O,AC50,[13],1.87 µM (active)
Cc1cccc(NC(=O)Nc2ccc3c(c2)C(=O)N(C)[C@@H]2CC[C@@H](CC(=O)NCc4ccccc4Cl)O[C@H]2CO3)c1,AC50,[18],3.32 µM (active)
Cc1noc(C)c1NC(=O)N(C)C[C@@H]1Oc2cc(C#CCC3CCCC3)ccc2S(=O)(=O)N([C@@H](C)CO)C[C@@H]1C,AC50,[18],18.9 µM (active)
Cc1no[n+]([O-])c1COc1ccc(/C=N/n2nnnc2N)cc1,IC50,[1],35.9 µM (inactive)
same,IC50,Steroidogenic factor 1,12 µM (inactive)
same,IC50,[2],35.9 µM (inactive)

# Source: ChEMBL document CHEMBL1201862, “PubChem BioAssay data set” (2004)
